Test results taken from ChEMBL document CHEMBL1145690, “Antimalarial activity of tropical Meliaceae extracts and gedunin derivatives” (J Nat Prod, 1997).
In brackets after ≈: the same amount, converted by molar mass. Activity calls are given as the source filed them. The calls are words filed in the database; no cut-off is given here.

Columns and labels:
Plasmodium falciparum [1] = experiment: Antimalarial activity against Plasmodium falciparum D6 by [3H]hypoxanthine uptake relative to gedunin; assay type: functional
Plasmodium falciparum [2] = experiment: Antimalarial activity against Plasmodium falciparum W2 by [3H]hypoxanthine uptake; assay type: functional, organism-based
KB [3] = experiment: Cytotoxicity against human KB cells assessed as viability at 20000 ng/ml; assay type: functional; conditions: read-out: Activity
KB [4] = experiment: Cytotoxicity against human KB cells; assay type: functional, cell-based
Plasmodium falciparum [5] = experiment: Antimalarial activity against Plasmodium falciparum D6 by [3H]hypoxanthine uptake; assay type: functional, organism-based
Plasmodium falciparum [6] = experiment: Antimalarial activity against Plasmodium falciparum; assay type: functional, organism-based
Plasmodium falciparum [7] = experiment: Antimalarial activity against Plasmodium falciparum FCR3TC by radioisotope micro dilution assay; assay type: functional, organism-based
Plasmodium falciparum [8] = experiment: Antimalarial activity against Plasmodium falciparum at 50000 ng/ml; assay type: functional, organism-based

Row | IC50 (Plasmodium falciparum [5]) [µg/mL] | IC50 (Plasmodium falciparum [6]) [µg/mL] | Structure (SMILES) | Activity (Plasmodium falciparum [1]) [%] | IC50 (Plasmodium falciparum [2]) [µg/mL] | viability at 20 µg/mL (KB [3]) [%] | IC50 (KB [4]) [µg/mL] | IC50 (Plasmodium falciparum [7]) [µg/mL] | Activity (Plasmodium falciparum [8])
1 | 0.832 (≈ 1.59 µM) |  | CC(=O)O[C@@H]1C[C@H]2C(C)(C)C(=O)C=C[C@]2(C)[C@H]2CC[C@@]3(C)[C@H](c4coc(C(C)=O)c4)OC(=O)[C@H]4O[C@]43[C@@]21C | 4.69 | 0.156 (≈ 0.297 µM) | 38 | 10.9 (≈ 20.8 µM) |  | 
2 | 0.133 (≈ 0.254 µM) |  | CC(=O)O[C@@H]1C[C@H]2C(C)(C)C(=O)C=C[C@]2(C)[C@H]2CC[C@@]3(C)[C@H](c4ccoc4C(C)=O)OC(=O)[C@H]4O[C@]43[C@@]21C | 29.38 | 0.039 (≈ 0.0743 µM) | 31 | 9.4 (≈ 17.9 µM) |  | 
3 | 2.58 (≈ 5.17 µM) |  | CC(=O)O[C@@H]1C[C@H]2C(C)(C)C(=O)[C@@H]3O[C@@H]3[C@]2(C)[C@H]2CC[C@@]3(C)[C@H](c4ccoc4)OC(=O)[C@H]4O[C@]43[C@@]21C | 0.93 | 0.98 (≈ 1.97 µM) | 81 |  |  | 
4 |  |  | CCN(CC)CCCC(C)Nc1ccnc2cc(Cl)ccc12 (stereo unspecified) [CHLOROQUINE] | 3000 |  |  | 17.4 (≈ 54.4 µM) |  | 
5 | > 10 | 2.63 (≈ 5.43 µM) | CC(=O)O[C@@H]1C[C@H]2C(C)(C)C(=O)CC[C@]2(C)[C@H]2CC[C@@]3(C)[C@H](c4ccoc4)OC(=O)[C@H]4O[C@]43[C@@]21C [DIHYDROGEDUNIN] | <0.39 | 0.84 (≈ 1.73 µM) | 71 |  |  | 
6 | 10 (≈ 20.5 µM) |  | CC(=O)O[C@@H]1C[C@H]2C(C)(C)C(=O)CC[C@]2(C)[C@H]2CC[C@@]3(C)[C@H](C4CCOC4)OC(=O)[C@H]4O[C@]43[C@@]21C (stereo partly specified) [HEXAHYDROGEDUNIN] | 0.39 | 2.13 (≈ 4.36 µM) | 99 |  |  | 
7 |  |  | CC1(C)O[C@H]2CC(=O)OC[C@]23[C@H]2CC[C@@]4(C)[C@H](c5ccoc5)OC(=O)[C@H]5O[C@]54[C@]2(C)C(=O)C[C@@H]13 [LIMONIN] |  |  |  |  | > 100 | inactive
8 |  | 1.74 (≈ 3.73 µM) | COC(=O)C[C@H]1[C@]2(C)C3=C(C)[C@H](c4ccoc4)C[C@H]3O[C@@H]2[C@@H]2OC(=O)[C@]3(C)C=CC(=O)[C@@]1(C)[C@@H]23 [NIMBOLIDE] |  |  |  |  |  | 
9 |  |  | C=C[C@H]1CN2CC[C@H]1C[C@H]2[C@H](O)c1ccnc2ccc(OC)cc12 [QUININE] | 264 | 0.0349 (≈ 0.108 µM) |  | > 20 |  | 
10 | 2.5 (≈ 5.14 µM) |  | CC(=O)O[C@@H]1C[C@H]2C(C)(C)C(=O)C=C[C@]2(C)[C@H]2CC[C@@]3(C)[C@H](C4CCOC4)OC(=O)[C@H]4O[C@]43[C@@]21C (stereo partly specified) [TETRAHYDROGEDUNIN] | 1.56 | 0.9 (≈ 1.85 µM) | 81 |  |  | 
11 | 4.21 (≈ 8.65 µM) |  | CC(=O)O[C@@H]1C[C@H]2C(C)(C)[C@@H](O)CC[C@]2(C)[C@H]2CC[C@@]3(C)[C@H](c4ccoc4)OC(=O)[C@H]4O[C@]43[C@@]21C [beta-DIHYDROGEDUNOL] | 0.93 | 2.44 (≈ 5.01 µM) | 69 |  |  | 

Row | Structure (SMILES) | IC50 (Plasmodium falciparum [5]) [µg/mL] | IC50 (Plasmodium falciparum [6]) [µg/mL] | Activity (Plasmodium falciparum [1]) [%] | IC50 (Plasmodium falciparum [2]) [µg/mL] | viability at 20 µg/mL (KB [3]) [%] | IC50 (KB [4]) [µg/mL] | IC50 (Plasmodium falciparum [7]) [µg/mL] | Activity (Plasmodium falciparum [8])
12 | C[C@@H]1CC[C@H]2[C@@H](C)C(=O)O[C@@H]3O[C@@]4(C)CC[C@@H]1[C@]32OO4 [ARTEMISININ] | 0.0018 (≈ 0.00638 µM) |  | 2170 | 0.0005 (≈ 0.00177 µM) |  | > 20 |  | 
13 | CC1(C)C(=O)C=C[C@]2(C)[C@H]3CC[C@@]4(C)[C@H](c5ccoc5)OC(=O)[C@H]5O[C@]54[C@]3(C)C(=O)C[C@@H]12 [DEACETOXY-7-OXOGEDUNIN] | > 10 |  | <0.39 | > 10 | 99 |  |  | 
14 | CC1(C)C(=O)C=C[C@]2(C)[C@H]3CC[C@@]4(C)[C@H](c5ccoc5)OC(=O)[C@H]5O[C@]54[C@]3(C)[C@H](O)C[C@@H]12 [DEACETYLGEDUNIN] | 2.61 (≈ 5.92 µM) |  | 1.5 | 1.28 (≈ 2.91 µM) | 39 |  |  | 
15 | CC(=O)O[C@@H]1C[C@H]2C(C)(C)C(=O)C=C[C@]2(C)[C@H]2CC[C@@]3(C)[C@H](c4ccoc4)OC(=O)[C@H]4O[C@]43[C@@]21C [GEDUNIN] | 0.039 (≈ 0.0808 µM) | 0.72 (≈ 1.49 µM) |  | 0.02 (≈ 0.0414 µM) | 32 | 2.3 (≈ 4.77 µM) | 0.8 (≈ 1.66 µM) | 
16 | CCOC(=O)[C@H]1[C@@H](OC(C)=O)[C@@H]2[C@@]3(C)C=CC(=O)[C@@](C)(C(=O)OC)C3=CC(=O)[C@@]2(C)[C@@]23O[C@@H]2C[C@@H](c2ccoc2)[C@]13C [HIRITIN] | 0.173 (≈ 0.298 µM) |  | 22.6 | 0.096 (≈ 0.165 µM) | 4.9 | 0.5 (≈ 0.861 µM) |  | 
17 | OC(c1cc(C(F)(F)F)nc2c(C(F)(F)F)cccc12)C1CCCCN1 (stereo unspecified) [MEFLOQUINE] | 0.0075 (≈ 0.0198 µM) |  | 521 | 0.0014 (≈ 0.0037 µM) |  | 3.5 (≈ 9.25 µM) |  | 
